Calls of active or inactive are those of the source. No cut-off for these calls is given here.
Assays:
[1] = tested on: UACC-62; experiment: Cytotoxicity against human UACC62 cells after 48 hrs by SRB assay; type: functional, cell-based; details: UACC-62, 48 h
[2] = tested on: MCF7; experiment: Cytotoxicity against human MCF7 cells after 48 hrs by SRB assay; type: functional, cell-based; details: MCF7, 48 h
[3] = tested on: TK-10; experiment: Cytotoxicity against human TK10 cells after 48 hrs by SRB assay; type: functional, cell-based; details: TK-10, 48 h
[4] = target: DNA topoisomerase 2-beta (Homo sapiens) (UniProt Q02880); experiment: Inhibition of topoisomerase 2beta in human K562 cells assessed as cleavage of supercoiled pRYG DNA at 300 nM after 24 hrs by TARDIS assay; type: cell-based
[5] = tested on: TK-10; experiment: Induction of apoptosis in human TK10 cells assessed as viable cells at 3 nM for 48 hrs measured after 3 days of drug removal by fluorescence microscopy assay; type: functional; details: read-out: Activity
[6] = tested on: TK-10; experiment: Induction of apoptosis in human TK10 cells assessed as apoptotic cells at 3 nM for 48 hrs measured after 3 days of drug removal by fluorescence microscopy assay; type: functional
[7] = target: DNA topoisomerase 2-alpha (Homo sapiens) (UniProt P11388); experiment: Inhibition of topoisomerase 2alpha-mediated cleavage of double-stranded pRYG DNA assessed as linear DNA at 30 nM by agarose gel electrophoresis
[8] = target: DNA topoisomerase 2-alpha (Homo sapiens) (UniProt P11388); experiment: Inhibition of topoisomerase 2alpha-mediated cleavage of double-stranded pRYG DNA assessed as linear DNA at 100 uM by agarose gel electrophoresis
[9] = species on record: Homo sapiens; experiment: Plasma concentration in human; type: ADME, organism-based; details: in vivo
[10] = target: DNA topoisomerase 2-beta (Homo sapiens) (UniProt Q02880); experiment: Inhibition of topoisomerase 2beta in human K562 cells assessed as cleavage of supercoiled pRYG DNA at 300 nM after 0.5 hrs by TARDIS assay relative to control; type: cell-based
[11] = target: DNA topoisomerase 2-alpha (Homo sapiens) (UniProt P11388); experiment: Inhibition of topoisomerase 2alpha-mediated cleavage of double-stranded pRYG DNA assessed as linear DNA at 100 nM by agarose gel electrophoresis
[12] = tested on: K562; experiment: Cytotoxicity against human K562 cells by XTT assay; type: functional, cell-based
[13] = tested on: TK-10; experiment: Induction of apoptosis in human TK10 cells assessed as necrotic cells at 3 nM for 48 hrs measured after 3 days of drug removal by fluorescence microscopy assay; type: functional
[14] = target: DNA topoisomerase 2-beta (Homo sapiens) (UniProt Q02880); experiment: Inhibition of topoisomerase 2beta in human K562 cells assessed as cleavage of supercoiled pRYG DNA at 300 nM by TARDIS assay; type: cell-based; details: TDE = time-dependent effect

Sequence of DNA topoisomerase 2-beta (Homo sapiens) (Q02880 whole entry): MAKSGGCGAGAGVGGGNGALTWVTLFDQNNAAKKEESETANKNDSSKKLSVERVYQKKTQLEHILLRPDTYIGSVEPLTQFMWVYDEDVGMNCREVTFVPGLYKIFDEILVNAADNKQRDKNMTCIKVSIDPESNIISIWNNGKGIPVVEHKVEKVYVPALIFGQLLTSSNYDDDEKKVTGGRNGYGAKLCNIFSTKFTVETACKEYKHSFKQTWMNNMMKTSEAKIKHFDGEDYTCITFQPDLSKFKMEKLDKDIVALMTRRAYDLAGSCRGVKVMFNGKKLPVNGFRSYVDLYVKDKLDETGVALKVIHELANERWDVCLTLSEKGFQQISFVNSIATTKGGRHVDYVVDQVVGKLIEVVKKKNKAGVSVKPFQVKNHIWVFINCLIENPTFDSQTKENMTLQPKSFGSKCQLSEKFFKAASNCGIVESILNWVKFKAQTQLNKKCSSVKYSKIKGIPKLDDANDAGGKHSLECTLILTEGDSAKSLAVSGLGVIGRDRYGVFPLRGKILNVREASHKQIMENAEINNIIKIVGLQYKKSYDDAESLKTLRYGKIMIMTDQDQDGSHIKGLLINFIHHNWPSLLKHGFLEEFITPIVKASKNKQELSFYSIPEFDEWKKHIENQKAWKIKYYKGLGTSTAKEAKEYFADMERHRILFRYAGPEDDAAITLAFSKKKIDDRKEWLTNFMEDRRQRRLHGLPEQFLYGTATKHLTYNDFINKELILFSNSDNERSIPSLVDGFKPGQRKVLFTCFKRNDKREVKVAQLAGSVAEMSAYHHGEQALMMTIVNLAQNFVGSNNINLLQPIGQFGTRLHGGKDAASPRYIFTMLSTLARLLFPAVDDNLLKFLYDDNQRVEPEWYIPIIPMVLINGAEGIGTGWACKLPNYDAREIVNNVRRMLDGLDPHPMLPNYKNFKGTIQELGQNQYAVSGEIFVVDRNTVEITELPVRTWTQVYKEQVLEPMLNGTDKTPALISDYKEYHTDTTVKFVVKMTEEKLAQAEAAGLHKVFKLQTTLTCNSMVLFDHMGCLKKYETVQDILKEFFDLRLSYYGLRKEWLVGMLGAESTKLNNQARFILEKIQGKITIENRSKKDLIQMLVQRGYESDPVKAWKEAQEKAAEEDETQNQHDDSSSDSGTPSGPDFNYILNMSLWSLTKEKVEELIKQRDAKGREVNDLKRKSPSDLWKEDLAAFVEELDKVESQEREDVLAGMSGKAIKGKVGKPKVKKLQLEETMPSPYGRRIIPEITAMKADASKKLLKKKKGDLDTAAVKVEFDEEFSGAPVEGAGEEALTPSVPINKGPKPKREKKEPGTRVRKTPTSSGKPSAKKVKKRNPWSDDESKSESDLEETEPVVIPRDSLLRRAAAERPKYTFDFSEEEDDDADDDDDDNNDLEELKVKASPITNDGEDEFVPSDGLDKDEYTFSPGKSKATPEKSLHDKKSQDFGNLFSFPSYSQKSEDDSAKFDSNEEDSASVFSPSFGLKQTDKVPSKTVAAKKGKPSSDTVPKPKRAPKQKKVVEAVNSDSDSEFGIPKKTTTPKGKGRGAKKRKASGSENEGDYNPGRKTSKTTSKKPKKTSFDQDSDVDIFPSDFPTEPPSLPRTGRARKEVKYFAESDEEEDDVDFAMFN
Sequence of DNA topoisomerase 2-alpha (Homo sapiens) (P11388 whole entry): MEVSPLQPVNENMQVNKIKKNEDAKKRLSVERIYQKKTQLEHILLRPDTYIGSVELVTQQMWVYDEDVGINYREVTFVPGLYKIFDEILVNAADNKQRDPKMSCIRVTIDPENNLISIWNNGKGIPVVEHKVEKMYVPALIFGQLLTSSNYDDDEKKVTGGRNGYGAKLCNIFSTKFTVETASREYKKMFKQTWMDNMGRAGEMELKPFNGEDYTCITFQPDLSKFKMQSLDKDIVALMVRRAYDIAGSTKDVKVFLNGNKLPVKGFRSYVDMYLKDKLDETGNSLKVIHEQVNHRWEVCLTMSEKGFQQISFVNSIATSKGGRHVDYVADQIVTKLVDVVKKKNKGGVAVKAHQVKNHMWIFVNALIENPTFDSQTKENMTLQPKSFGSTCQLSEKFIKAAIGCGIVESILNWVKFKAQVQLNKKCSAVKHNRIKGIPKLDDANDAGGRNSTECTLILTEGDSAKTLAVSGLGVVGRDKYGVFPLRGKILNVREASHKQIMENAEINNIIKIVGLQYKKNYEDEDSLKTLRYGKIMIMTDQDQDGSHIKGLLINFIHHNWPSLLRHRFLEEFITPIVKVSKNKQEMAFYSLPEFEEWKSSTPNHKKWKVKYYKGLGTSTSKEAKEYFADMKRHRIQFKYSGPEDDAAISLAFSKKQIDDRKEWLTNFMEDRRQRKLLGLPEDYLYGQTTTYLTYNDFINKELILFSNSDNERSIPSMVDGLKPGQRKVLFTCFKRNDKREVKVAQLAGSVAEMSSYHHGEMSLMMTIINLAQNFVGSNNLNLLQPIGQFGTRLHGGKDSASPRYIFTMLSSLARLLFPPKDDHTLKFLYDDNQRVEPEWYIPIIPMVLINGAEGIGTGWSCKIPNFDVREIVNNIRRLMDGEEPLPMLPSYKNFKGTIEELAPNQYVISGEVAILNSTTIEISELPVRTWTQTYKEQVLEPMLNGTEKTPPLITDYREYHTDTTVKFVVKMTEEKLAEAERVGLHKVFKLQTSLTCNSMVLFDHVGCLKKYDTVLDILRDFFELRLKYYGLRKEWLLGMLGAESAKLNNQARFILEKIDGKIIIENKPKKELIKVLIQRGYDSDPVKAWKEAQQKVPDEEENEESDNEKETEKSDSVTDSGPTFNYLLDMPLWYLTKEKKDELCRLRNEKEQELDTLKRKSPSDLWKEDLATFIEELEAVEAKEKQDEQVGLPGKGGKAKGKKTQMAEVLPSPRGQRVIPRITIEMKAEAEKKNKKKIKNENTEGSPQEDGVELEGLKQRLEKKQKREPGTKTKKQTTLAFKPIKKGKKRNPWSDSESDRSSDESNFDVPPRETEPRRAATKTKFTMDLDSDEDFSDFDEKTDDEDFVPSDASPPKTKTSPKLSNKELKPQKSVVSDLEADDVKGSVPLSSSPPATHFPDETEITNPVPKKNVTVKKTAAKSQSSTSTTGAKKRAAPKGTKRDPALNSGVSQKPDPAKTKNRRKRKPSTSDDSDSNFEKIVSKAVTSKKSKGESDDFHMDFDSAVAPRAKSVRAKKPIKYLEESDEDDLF

Compound | IC50 [1] | IC50 [2] | IC50 [3] | other results
C[C@]12CC[C@H](O)C[C@H]1CC[C@@H]1[C@@H]2CC[C@]2(C)[C@@H](C3=CC(=O)OC3)CC[C@]12O [DIGITOXIGENIN] | 0.349 µM | 0.194 µM | 0.0765 µM | 
C[C@H]1O[C@@H](O[C@H]2[C@@H](O)C[C@H](O[C@H]3[C@@H](O)C[C@H](O[C@H]4CC[C@@]5(C)[C@H](CC[C@@H]6[C@@H]5CC[C@]5(C)[C@@H](C7=CC(=O)OC7)CC[C@]65O)C4)O[C@@H]3C)O[C@@H]2C)C[C@H](O)[C@@H]1O [DIGITOXIN] | 0.0335 µM | 0.0102 µM | 0.0032 µM | Activity [4]: Active; viability at 0.003 µM [5]: 52.1%; Activity [6]: 41.3%; Activity [7]: inactive; Activity [8]: Active; concentration [9]: 0.0196 µM; Activity [10]: Active; Activity [11]: inactive; IC50 [12]: 0.0064 µM; Activity [13]: 6.6%; Activity [14]: tde
C[C@]12CC[C@H](O)C[C@H]1CC[C@@H]1[C@@H]2C[C@@H](O)[C@]2(C)[C@@H](C3=CC(=O)OC3)CC[C@]12O [DIGOXIGENIN] | 0.416 µM | 0.507 µM | 0.318 µM | 
C[C@H]1O[C@@H](O[C@H]2[C@@H](O)C[C@H](O[C@H]3[C@@H](O)C[C@H](O[C@H]4CC[C@@]5(C)[C@H](CC[C@@H]6[C@@H]5C[C@@H](O)[C@]5(C)[C@@H](C7=CC(=O)OC7)CC[C@]65O)C4)O[C@@H]3C)O[C@@H]2C)C[C@H](O)[C@@H]1O [DIGOXIN] | 0.0295 µM | 0.0241 µM | 0.0146 µM | concentration [9]: 0.0006 µM; IC50 [12]: 0.0282 µM
COc1cc([C@@H]2c3cc4c(cc3[C@@H](O[C@@H]3O[C@@H]5CO[C@@H](C)O[C@H]5[C@H](O)[C@H]3O)[C@H]3COC(=O)[C@H]23)OCO4)cc(OC)c1O [ETOPOSIDE] | 1.13 µM | 0.878 µM | 9.95 µM | 
C[C@]12CC[C@H](O)C[C@H]1CC[C@@H]1[C@@H]2CC[C@]2(C)[C@@H](C3=CC(=O)OC3)[C@@H](O)C[C@]12O [GITOXIGENIN] | 2.84 µM | 1.81 µM | 0.416 µM | 
C[C@H]1O[C@@H](O[C@H]2[C@@H](O)C[C@H](O[C@H]3[C@@H](O)C[C@H](O[C@H]4CC[C@@]5(C)[C@H](CC[C@@H]6[C@@H]5CC[C@]5(C)[C@@H](C7=CC(=O)OC7)[C@@H](O)C[C@]65O)C4)O[C@@H]3C)O[C@@H]2C)C[C@H](O)[C@@H]1O [GITOXIN] | 0.369 µM | 0.252 µM | 0.131 µM | 

— ChEMBL document CHEMBL1158830, “Digitoxin inhibits the growth of cancer cell lines at concentrations commonly found in cardiac patients” (J Nat Prod, 2005)
